Source: PubChem BioAssay (NCI)
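Cells were grown in 96-well plates and exposed to each compound for 48 hours at five concentrations; endpoints were interpolated linearly between bracketing concentrations, or set to the highest concentration if not reached. GI50 is the concentration that inhibits growth by half. TGI denotes the concentration required for complete inhibition of growth.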

What was measured:
Test in all cases: DTP human tumour cell line panel, 48 h
[1] = test system: OVCAR-4 ovarian
[2] = test system: SF-539 CNS
[3] = test system: M14 melanoma
[4] = test system: OVCAR-8 ovarian
[5] = test system: HOP-18 NSCLC
[6] = test system: HCT-15 colon
[7] = test system: SK-MEL-2 melanoma
[8] = test system: KM12 colon
[9] = test system: SK-MEL-28 melanoma
[10] = test system: UACC-257 melanoma
[11] = test system: SNB-75 CNS
[12] = test system: CAKI-1 renal
[13] = test system: SF-268 CNS
[14] = test system: RXF-631 renal
[15] = test system: NCI-H226 lung
[16] = test system: RXF 393 renal
[17] = test system: DLD-1 colon
[18] = test system: UO-31 renal
[19] = test system: 786-0 renal
[20] = test system: HCT-116 colon
[21] = test system: MALME-3M melanoma
[22] = test system: HOP-92 NSCLC
[23] = test system: A498 renal
[24] = test system: U251 CNS
[25] = test system: SNB-78 CNS
[26] = test system: LOX IMVI melanoma
[27] = test system: NCI-H522 lung
[28] = test system: IGROV1 ovarian
[29] = test system: LXFL 529 NSCLC
[30] = test system: OVCAR-3 ovarian
[31] = test system: SK-OV-3 ovarian
[32] = test system: NCI-H23 lung
[33] = test system: A549 NSCLC
[34] = test system: SR leukemia
[35] = test system: HOP-62 NSCLC
[36] = test system: XF 498 CNS
[37] = test system: COLO 205 colon
[38] = test system: EKVX NSCLC
[39] = test system: RPMI-8226 leukemia
[40] = test system: SNB-19 CNS
[41] = test system: M19-MEL melanoma
[42] = test system: MOLT-4 leukemia
[43] = test system: CCRF-CEM leukemia
[44] = test system: ACHN renal
[45] = test system: DMS 273 small cell lung
[46] = test system: UACC-62 melanoma
[47] = test system: K-562 leukemia
[48] = test system: OVCAR-5 ovarian
[49] = test system: NCI-H460 lung
[50] = test system: SN12C renal
[51] = test system: SW-620 colon
[52] = test system: HT29 colon
[53] = test system: DMS 114 small cell lung
[54] = test system: TK-10 renal
[55] = test system: SK-MEL-5 melanoma
[56] = test system: KM20L2 colon
[57] = test system: HL-60(TB) leukemia
[58] = test system: HCC-2998 colon
[59] = test system: SF-295 CNS

Compound: CCC[CH2][Sn]([CH2]CCC)([O]C(=O)/C=C/c1ccccc1F)[O]C(=O)/C=C/c1ccccc1F
- GI50 [1]: 1450 nM
- TGI [1]: 2900 nM
- GI50 [2]: 1270 nM
- TGI [2]: 2560 nM
- GI50 [3]: 873 nM
- TGI [3]: 2220 nM
- GI50 [4]: 980 nM
- TGI [4]: 2200 nM
- GI50 [5]: 1620 nM
- TGI [5]: 2980 nM
- GI50 [6]: 740 nM
- TGI [6]: 1950 nM
- GI50 [7]: 324 nM
- TGI [7]: 1190 nM
- GI50 [8]: 1380 nM
- TGI [8]: 2720 nM
- GI50 [9]: 328 nM
- TGI [9]: 1290 nM
- GI50 [10]: 465 nM
- TGI [10]: 1760 nM
- GI50 [11]: 692 nM
- TGI [11]: 2060 nM
- GI50 [12]: 436 nM
- TGI [12]: 1790 nM
- GI50 [13]: 526 nM
- TGI [13]: 1840 nM
- GI50 [14]: 253 nM
- TGI [14]: 972 nM
- GI50 [15]: 775 nM
- TGI [15]: 2040 nM
- GI50 [16]: 256 nM
- TGI [16]: 950 nM
- GI50 [17]: 393 nM
- TGI [17]: 1500 nM
- GI50 [18]: 775 nM
- TGI [18]: 2060 nM
- GI50 [19]: 384 nM
- TGI [19]: 1170 nM
- GI50 [20]: 1050 nM
- TGI [20]: 2520 nM
- GI50 [21]: 385 nM
- TGI [21]: 1600 nM
- GI50 [22]: 415 nM
- TGI [22]: 1370 nM
- GI50 [23]: 1090 nM
- TGI [23]: 2290 nM
- GI50 [24]: 511 nM
- TGI [24]: 1410 nM
- GI50 [25]: 452 nM
- TGI [25]: 1700 nM
- GI50 [26]: 289 nM
- TGI [26]: 906 nM
- GI50 [27]: 79.8 nM
- TGI [27]: 185 nM
- GI50 [28]: 585 nM
- TGI [28]: 1660 nM
- GI50 [29]: 131 nM
- TGI [29]: 304 nM
- GI50 [30]: 1070 nM
- TGI [30]: 2310 nM
- GI50 [31]: 2040 nM
- TGI [31]: 4.48 µM
- GI50 [32]: 198 nM
- TGI [32]: 560 nM
- GI50 [33]: 1880 nM
- TGI [33]: 3.91 µM
- GI50 [34]: 305 nM
- TGI [34]: 2100 nM
- GI50 [35]: 2120 nM
- TGI [35]: 4.71 µM
- GI50 [36]: 258 nM
- TGI [36]: 892 nM
- GI50 [37]: 907 nM
- TGI [37]: 2410 nM
- GI50 [38]: 1430 nM
- TGI [38]: 2790 nM
- GI50 [39]: 222 nM
- TGI [39]: 1200 nM
- GI50 [40]: 788 nM
- TGI [40]: 2070 nM
- GI50 [41]: 891 nM
- TGI [41]: 2780 nM
- GI50 [42]: 267 nM
- TGI [42]: 1710 nM
- GI50 [43]: 139 nM
- TGI [43]: 616 nM
- GI50 [44]: 797 nM
- TGI [44]: 2050 nM
- GI50 [45]: 1160 nM
- TGI [45]: 2930 nM
- GI50 [46]: 1170 nM
- TGI [46]: 2590 nM
- GI50 [47]: 232 nM
- TGI [47]: 1400 nM
- GI50 [48]: 1500 nM
- TGI [48]: 2830 nM
- GI50 [49]: 1640 nM
- TGI [49]: 3.37 µM
- GI50 [50]: 1030 nM
- TGI [50]: 2290 nM
- GI50 [51]: 205 nM
- TGI [51]: 0.479 µM
- GI50 [52]: 1580 nM
- TGI [52]: 3.07 µM
- GI50 [53]: 445 nM
- TGI [53]: 1460 nM
- GI50 [54]: 898 nM
- TGI [54]: 2030 nM
- GI50 [55]: 985 nM
- TGI [55]: 2310 nM
- GI50 [56]: 1340 nM
- TGI [56]: 2640 nM
- GI50 [57]: 536 nM
- TGI [57]: 4.87 µM
- GI50 [58]: 1060 nM
- TGI [58]: 2290 nM
- GI50 [59]: 1430 nM
- TGI [59]: 2780 nM

Compound: C#C[C@H]1CCCCCC1O (stereo partly specified)
- TGI [1]: > 100000 nM
- TGI [2]: > 100000 nM
- TGI [3]: > 100000 nM
- TGI [4]: > 100000 nM
- TGI [5]: > 100000 nM
- TGI [6]: > 100000 nM
- TGI [7]: > 100000 nM
- TGI [8]: > 100000 nM
- TGI [9]: > 100000 nM
- TGI [10]: > 100000 nM
- TGI [11]: > 100000 nM
- TGI [12]: > 100000 nM
- TGI [13]: > 100000 nM
- TGI [14]: > 100000 nM
- TGI [15]: > 100000 nM
- TGI [16]: > 100000 nM
- TGI [17]: > 100000 nM
- TGI [18]: > 100000 nM
- TGI [19]: > 100000 nM
- TGI [20]: > 100000 nM
- TGI [21]: > 100000 nM
- TGI [22]: > 100000 nM
- TGI [23]: > 100000 nM
- TGI [24]: > 100000 nM
- TGI [25]: > 100000 nM
- TGI [26]: > 100000 nM
- TGI [27]: > 100000 nM
- TGI [28]: > 100000 nM
- TGI [29]: > 100000 nM
- TGI [30]: > 100000 nM
- TGI [31]: > 100 µM
- TGI [32]: > 100000 nM
- TGI [33]: > 100 µM
- TGI [34]: > 100000 nM
- TGI [35]: > 100 µM
- TGI [36]: > 100000 nM
- TGI [37]: > 100000 nM
- TGI [38]: > 100000 nM
- TGI [40]: > 100000 nM
- TGI [41]: > 100000 nM
- TGI [42]: > 100000 nM
- TGI [43]: > 100000 nM
- TGI [44]: > 100000 nM
- TGI [45]: > 100000 nM
- TGI [46]: > 100000 nM
- TGI [47]: > 100000 nM
- TGI [48]: > 100000 nM
- TGI [49]: > 100 µM
- TGI [50]: > 100000 nM
- TGI [51]: 69.8 µM
- TGI [52]: > 100 µM
- TGI [53]: > 100000 nM
- TGI [54]: > 100000 nM
- TGI [55]: > 100000 nM
- TGI [56]: > 100000 nM
- TGI [57]: > 100 µM
- TGI [58]: > 100000 nM
- TGI [59]: > 100000 nM
